According to US11608343B2, “Substituted pyrimido[5,4-d]pyrimidines as HER2 inhibitors” (Boehringer Ingelheim International GmbH, priority 2020, dated 2023):

How the values were obtained:
Assay type in all cases: cell-based
[1] = tested on: NCI-H2170 HER2 YVMA cells; assay: Tumor cell line proliferation assay, NCI-H2170 HER2 YVMA, CellTiter-Glo; details: Homo sapiens, 72 h, read-out: GI50 NCI H-2170 HER2 YVMA
Source text: HER2 YVMA Tumor Cell Line Model Generation and Proliferation Assays
Homology-directed genome engineering is employed to insert a 12 nucleotide sequence encoding YVMA into Exon 20 of the genomic HER2 locus in NCI-H2170 cells. […] The DNA template containing the HER2 exon 20 YVMA insertion variant was obtained from GenScript. PCR followed by Sanger sequencing is used to confirm the presence of the 12-nucleotide insertion in HER2 Exon 20 resulting in the YVMA amino acid duplication.
(§1) For proliferation assays, NCI-H2170 (HER2 wild type), NCI-H2170 HER2 YVMA and EGFR WT dependent A431 cells are used. NCI-H2170 HER2 YVMA or NCI-H2170 cells are seeded into 96-well plates at 750 cells/60 μL in growth media (RPMI ATCC+10% FCS, +Penicillin/Streptomycin). […] Compounds are added by using a HP D3000 Digital Dispenser one day after plating the cells. All treatments are performed in technical triplicates. Treated cells are incubated for 72 h at 37° C. with 5% CO2. CellTiter-Glo® Luminescent Cell Viability Assay (Promega) is performed and chemoluminescence is measured by using the multilabel Plate Reader VICTOR X4. The raw data are imported into and analyzed with the Boehringer Ingelheim proprietary software MegaLab (curve fitting based on the program PRISM, GraphPad Inc.).

[2] = tested on: Ba/F3 cells HER2 mutants (YVMA); assay: Ba/F3 proliferation assay, HER2 YVMA, CellTiter-Glo; details: Mus musculus, BaF3, 72 h
Experimental: (§2) Ba/F3 Cell Model Generation and Proliferation Assays
(§3) Plasmids containing HER2 mutants and EGFR WT were obtained from GeneScript. To generate EGFR/HER2-dependent Ba/F3 models, Ba/F3 cells are transduced with retroviruses containing vectors that harbor EGFR WT, HER2 WT or HER2 mutants (YVMA). Platinum-E cells (Cell Biolabs) are used for retrovirus packaging. Retrovirus is added to Ba/F3 cells. To ensure infection, 4 μg/mL polybrene is added and cells are spin-infected. Infection efficiency is confirmed by measuring GFP-positive cells using a cell analyzer. Cells with an infection efficiency of 10% to 20% are further cultivated and puromycin selection with 1 μg/mL is initiated. As a control, parental Ba/F3 cells are used to assess the selection status. Selection is considered successful when parental Ba/F3 cells cultures die. To evaluate the transforming potential of HER2 mutations, the growth medium is no longer supplemented with IL-3. Ba/F3 cells harboring the empty vector are used as a control. A switch from IL-3 to EGF is performed for Ba/F3 cells expressing EGFR WT known for its dependency on EGF ligand. Approximately ten days before conducting the experiments, puromycin is left out. For proliferation assays (data in tables 10 and 12), Ba/F3 cells are seeded into 96-well plates at 5×10^3 cells/100 μL in growth media. Compounds are added by using a HP D3000 Digital Dispenser. All treatments are performed in technical triplicates. Treated cells are incubated for 72 h at 37° C. with 5% CO2. A CellTiter-Glo® Luminescent Cell Viability Assay (Promega) is performed and chemoluminescence is measured by using the multilabel Plate Reader VICTOR X4. The raw data are imported into and analyzed with the Boehringer Ingelheim proprietary software MegaLab (curve fitting based on the program PRISM, GraphPad Inc.).

[3] = tested on: Ba/F3 cells expressing EGFR WT; assay: Ba/F3 proliferation assay, EGFR WT (EGF dependent), CellTiter-Glo; details: Mus musculus, BaF3, EGF instead of IL-3, 72 h, read-out: GI50 BAF3 EGF dep.
Experimental: as §2, §3

EGFR wild type (WT) = target: T1, EGFR wild type (WT) (Homo sapiens, UniProt P00533); assay: pEGFR assay: phosphorylation of EGFR at Tyr1068 in HEK cells expressing EGFR WT (AlphaScreen Surefire); details: 4 h with compound
T1 construct: expressed in transfected cells; host or cells: human HEK cells (ATCC CRL-1573), retroviral transduction
T1 sequence (P00533 25-1210): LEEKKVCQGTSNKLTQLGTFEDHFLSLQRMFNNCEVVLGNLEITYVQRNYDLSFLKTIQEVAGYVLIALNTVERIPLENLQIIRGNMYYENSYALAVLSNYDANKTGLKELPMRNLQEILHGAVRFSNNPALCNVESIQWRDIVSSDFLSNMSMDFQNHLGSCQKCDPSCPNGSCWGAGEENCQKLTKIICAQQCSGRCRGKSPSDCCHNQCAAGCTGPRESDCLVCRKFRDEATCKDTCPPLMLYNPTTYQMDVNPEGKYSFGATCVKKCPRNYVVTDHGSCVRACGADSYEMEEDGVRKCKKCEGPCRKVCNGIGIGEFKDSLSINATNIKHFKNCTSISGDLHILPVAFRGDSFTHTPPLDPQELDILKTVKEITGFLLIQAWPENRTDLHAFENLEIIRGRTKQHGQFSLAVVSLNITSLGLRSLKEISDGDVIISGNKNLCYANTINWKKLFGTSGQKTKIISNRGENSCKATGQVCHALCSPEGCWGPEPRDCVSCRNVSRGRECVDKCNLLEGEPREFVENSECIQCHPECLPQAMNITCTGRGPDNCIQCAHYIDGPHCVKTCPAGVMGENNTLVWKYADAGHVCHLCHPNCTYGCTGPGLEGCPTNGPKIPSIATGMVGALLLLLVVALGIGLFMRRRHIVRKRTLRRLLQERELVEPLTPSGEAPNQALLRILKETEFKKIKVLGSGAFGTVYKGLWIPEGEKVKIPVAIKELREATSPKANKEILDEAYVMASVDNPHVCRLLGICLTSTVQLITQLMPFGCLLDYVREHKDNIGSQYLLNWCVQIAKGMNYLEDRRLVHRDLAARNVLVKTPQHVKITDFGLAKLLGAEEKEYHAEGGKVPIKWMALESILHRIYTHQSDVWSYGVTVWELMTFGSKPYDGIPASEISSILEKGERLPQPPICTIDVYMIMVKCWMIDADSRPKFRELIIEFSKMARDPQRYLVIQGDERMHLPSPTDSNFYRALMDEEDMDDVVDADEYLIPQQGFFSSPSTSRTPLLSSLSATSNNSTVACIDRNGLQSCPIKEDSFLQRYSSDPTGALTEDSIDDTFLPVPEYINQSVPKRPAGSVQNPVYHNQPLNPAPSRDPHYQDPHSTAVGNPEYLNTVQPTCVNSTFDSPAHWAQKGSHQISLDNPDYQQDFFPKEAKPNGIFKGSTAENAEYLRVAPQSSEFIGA
Experimental: This assay quantifies the phosphorylation of EGFR at Tyr1068 and is used to measure the inhibitory effect of compounds on the transgenic EGFR wild type (WT) protein expressed in HEK cells.
(§4) Transduced cells are selected using puromycin. p-EGFR Tyr1068 is determined using the AlphaScreen Surefire pEGF Receptor (Tyr1068) Assay (PerkinElmer, TGRERS). For the assay, HEK EGFR WT cells are seeded in MEM medium with 10% FBS. […] Subsequently, 60.000 cells/well in 60 μL are added. Cells are incubated with compound for 4 h at 37° C. […] The mixture is incubated at a temperature of 20-25° C. with shaking (700 rpm) for 20 min. After centrifugation, 4 μL of the lysate are transferred to Proxiplates. […] Plates are shaken for 1 min (1400 rpm) and incubated for 2 h at a temperature of (20-25° C.) in the dark. […] Plates are shaken for 1 min (1400 rpm) and incubated for 2 h at a temperature of (20-25° C.) in the dark. Plates are subsequently analyzed using an Envision reader platform. […] IC50 values are computed from these values in the MEGASTAR IC50 application using a 4 parametric logistic model.
This cellular phospho-EGFR (pEGFR) compound dose-response assay quantifies the phosphorylation of EGFR at Tyr1068 in HEK cells expressing EGFR WT. The results of the assay are provided as IC50 values.

[4] = tested on: NCI-H2170 (HER2 wild type) cells; assay: Tumor cell line proliferation assay, NCI-H2170 (HER2 wild type), CellTiter-Glo; details: Homo sapiens, 72 h, read-out: GI50 NCI H-2170 HER2 wt amp.
Experimental: as §1

Ba/F3 cells HER2 WT = assay: Ba/F3 proliferation assay, HER2 WT, CellTiter-Glo; details: Mus musculus, BaF3, 72 h
Experimental: as §2, §3

[5] = tested on: EGFR WT dependent A431 cells; assay: Tumor cell line proliferation assay, EGFR WT dependent A431 cells, CellTiter-Glo; details: Homo sapiens, A-431, 72 h, read-out: GI50 A431 EGFR wt amp.
Experimental: as §1

HER2 YVMA = target: T2, HER2 YVMA (Homo sapiens, UniProt P04626, INS775YVMA); assay: pHER2 (ERBB2) YVMA assay: phosphorylation of HER2 YVMA at Tyr1221/1222 in HEK cells (AlphaScreen Surefire); details: doxycycline induced, 4 h with compound
T2 construct: expressed in transfected cells; host or cells: human HEK cells, retroviral transduction, doxycycline-inducible expression
T2 sequence (P04626 with tags, fused parts or gaps INS775YVMA): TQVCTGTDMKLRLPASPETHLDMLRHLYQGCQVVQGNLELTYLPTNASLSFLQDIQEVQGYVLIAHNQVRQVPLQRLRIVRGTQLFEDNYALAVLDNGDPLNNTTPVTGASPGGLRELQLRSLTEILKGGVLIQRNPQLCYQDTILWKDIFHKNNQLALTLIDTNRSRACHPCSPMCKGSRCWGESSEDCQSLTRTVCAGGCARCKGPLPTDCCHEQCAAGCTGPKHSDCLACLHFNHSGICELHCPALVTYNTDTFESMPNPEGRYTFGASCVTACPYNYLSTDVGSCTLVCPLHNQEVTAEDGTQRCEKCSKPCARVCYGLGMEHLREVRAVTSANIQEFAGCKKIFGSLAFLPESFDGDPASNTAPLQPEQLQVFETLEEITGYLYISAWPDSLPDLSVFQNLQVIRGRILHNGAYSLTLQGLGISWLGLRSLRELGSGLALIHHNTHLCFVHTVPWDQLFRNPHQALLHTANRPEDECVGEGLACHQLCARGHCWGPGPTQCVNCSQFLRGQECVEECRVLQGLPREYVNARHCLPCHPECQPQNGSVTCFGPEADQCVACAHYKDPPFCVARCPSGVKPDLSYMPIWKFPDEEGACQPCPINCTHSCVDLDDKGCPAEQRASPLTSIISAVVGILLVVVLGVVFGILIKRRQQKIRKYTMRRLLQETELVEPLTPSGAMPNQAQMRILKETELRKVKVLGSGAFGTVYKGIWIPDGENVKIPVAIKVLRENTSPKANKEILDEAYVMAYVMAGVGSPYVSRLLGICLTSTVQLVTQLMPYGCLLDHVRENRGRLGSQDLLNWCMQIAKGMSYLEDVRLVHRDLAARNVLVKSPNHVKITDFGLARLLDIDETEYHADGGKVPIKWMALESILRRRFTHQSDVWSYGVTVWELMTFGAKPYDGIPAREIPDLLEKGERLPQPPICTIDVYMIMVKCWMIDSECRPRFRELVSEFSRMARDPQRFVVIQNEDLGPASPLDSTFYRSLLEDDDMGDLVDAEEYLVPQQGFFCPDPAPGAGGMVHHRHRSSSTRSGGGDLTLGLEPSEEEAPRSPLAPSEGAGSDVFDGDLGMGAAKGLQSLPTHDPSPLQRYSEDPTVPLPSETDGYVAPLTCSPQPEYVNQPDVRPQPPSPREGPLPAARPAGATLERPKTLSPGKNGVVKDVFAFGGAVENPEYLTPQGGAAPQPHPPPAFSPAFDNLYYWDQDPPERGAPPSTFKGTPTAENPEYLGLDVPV
Experimental: as §4, with “For” for “Transduced cells are selected using puromycin. p-EGFR Tyr1068 is determined using the AlphaScreen Surefire pEGF Receptor (Tyr1068) Assay (PerkinElmer, TGRERS). For”, “HER2 YVMA” for “EGFR WT”, “FBS. 4 hours prior to compound addition, HER2 YVMA expression is induced using 1 μg/mL Doxycycline.” for “FBS.”, “20-25° C.” for “(20-25° C.)”, “model. […] The results of the assay are provided as IC50 values.” for “model.”

Row | Structure (SMILES) | GI50 [2] [nM] | GI50 [3] [nM] | IC50 (EGFR wild type (WT)) [nM] | GI50 (Ba/F3 cells HER2 WT) [nM] | GI50 [5] [nM] | IC50 (HER2 YVMA) [nM] | GI50 [1] [nM] | GI50 [4] [nM]
1 | C=CC(=O)NC1CCN(c2ncc3ncnc(Nc4ccc(Oc5ccn6ncnc6c5)c(C)c4)c3n2)CC1 [Example I-11] | 28 | > 2000 | 521 | 2 | 1250 | 22 | 172 | 8
2 | C#Cc1cc(Nc2ncnc3cnc(N4CC(NC(=O)C=C)C4)nc23)ccc1Oc1ccn2ncnc2c1 [Example I-10] | 35 | 1650 | 217 | 3 | 1460 | 24 | 126 | 12
3 | C=CC(=O)N1CCC(Nc2ncc3ncnc(Nc4ccc(Oc5ccn6ncnc6c5)c(C)c4)c3n2)CC1 [Example I-16] | 10 | 375 | 23 | 1 | 660 | 5 | 19 | 4
4 | C=CC(=O)N1CC(Nc2ncc3ncnc(Nc4ccc(Oc5ccn6ncnc6c5)c(C)c4)c3n2)C1 [Example I-19] | 11 | 206 | 41 | 2 | 752 | 8 | 34 | 8
5 | C#Cc1cc(Nc2ncnc3cnc(NC4CCN(C(=O)C=C)CC4)nc23)ccc1Oc1ccc2c(c1)ncn2C [Example I-15] | 18 | 425 | 86 | 2 | 948 | 12 | 44 | 13

Further lines, with some results ahead:

Row | GI50 [2] [nM] | GI50 [3] [nM] | IC50 (EGFR wild type (WT)) [nM] | GI50 (Ba/F3 cells HER2 WT) [nM] | GI50 [5] [nM] | IC50 (HER2 YVMA) [nM] | Structure (SMILES) | GI50 [1] [nM] | GI50 [4] [nM]
6 | 32 | > 2000 | 429 | 1 | > 5000 | 28 | C=CC(=O)NC1CN(c2ncc3ncnc(Nc4ccc(Oc5cnc6c(c5)ncn6C)c(C)c4)c3n2)C1 [Example I-13] | 82 | 19
7 | 36 | 2300 | 336 | 2 | 1500 | 58 | C=CC(=O)NC1CN(c2ncc3ncnc(Nc4ccc(Oc5ccc6c(c5)ncn6C)c(Cl)c4)c3n2)C1 [Example I-08] | 44 | 8
8 | 42 | 1500 | 1170 | 3 | > 5000 | 20 | C=CC(=O)NC1CN(c2ncc3ncnc(Nc4ccc(Oc5ccc6c(c5)ncn6C)c(C)c4)c3n2)C1 [Example I-07] | 73 | 17
9 | 29 | 2240 | 715 | 1 | > 5000 | 26 | C=CC(=O)NC1CN(c2ncc3ncnc(Nc4ccc(Oc5ccn6ncnc6c5)c(C)c4)c3n2)C1 [Example I-09] | 75 | 9
